Assay results reported in publication PMC11645656, “MRGPRX4 mediates phospho-drug associated pruritus in a humanized mouse model” (Science translational medicine, 2024).
“And” between values parts separate entries of the source, which are not always exact repeats. Identical values can stand only once.

Key:
Format in all cases: cell-based
MRGPRX4 WT (S83) = MRGPRX4 WT (S83) (Homo sapiens, UniProt Q96LA9, L83S); experiment: PRESTO-Tango β-arrestin recruitment assay, HTLA cells stably expressing WT (S83) MRGPRX4; set-up: expressed in transfected cells; details: HTLA::MRGPRX4
Sequence of MRGPRX4 WT (S83) (Q96LA9 whole entry L83S, the tested form may be a part): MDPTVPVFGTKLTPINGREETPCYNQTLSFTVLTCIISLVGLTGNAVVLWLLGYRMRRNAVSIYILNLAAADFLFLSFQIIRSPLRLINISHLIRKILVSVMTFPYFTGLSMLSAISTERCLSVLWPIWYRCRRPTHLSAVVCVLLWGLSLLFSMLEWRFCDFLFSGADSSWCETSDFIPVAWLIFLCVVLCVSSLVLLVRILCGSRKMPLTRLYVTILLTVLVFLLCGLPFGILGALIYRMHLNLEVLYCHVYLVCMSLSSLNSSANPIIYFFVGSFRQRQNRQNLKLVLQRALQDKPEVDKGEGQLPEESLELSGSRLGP
Procedure: HTLA cells, a cell line derived from HEK293 and engineered to stably express a tTA-dependent luciferase reporter and a β-arrestin2-TEV fusion gene, were generously provided by Richard Axel's laboratory. HTLA cells were cultured in growth medium containing 2 μg/ml puromycin and 100 μg/ml hygromycin B in 5% CO2 at 37 °C. Stably MRGPRX4-expressing HTLA cells were generated by transfecting pcDNA3.1(+)-Zeo containing MRGPRX4-Tango construct (either with WT or S83L mutant sequence) into HTLA cells with Lipofectamine 3000 and selecting the successful transfected clones with Zeocin.
HTLA cells stably expressing either WT or S83L MRGPRX4 were seeded in PDL-coated 96-well white clear bottom cell culture plates with DMEM containing 10% FBS, at a density of 35,000 cells per well and were allowed to attach to the bottom of the wells overnight. The next day, growth medium was replaced with 100 μl of serum-free medium containing the tested drugs at various concentrations, and the cells were then incubated at 37°C for 24 h. On the following day, media with drug solutions was removed and 50 μl per well of Bright-Glo™ Reagent from Bright-Glo™ Luciferase Assay System (Promega) was loaded. The plate was incubated at room temperature in the dark for 5 min, and the relative luminescence units were measured using the Flexstation-3 instrument with SoftMax®Pro 7.1 software (Molecular Devices). Dose response curves and EC50s were analyzed as described above.
Data are from at least two independent experiments, each performed in
triplicate, and are depicted as mean ± SEM.
arrestin2-TEV fusion gene and a tTA -dependent luciferase reporter.

HTLA cells = experiment: PRESTO-Tango β-arrestin recruitment assay, parental HTLA cells without MRGPRX4 (control, fig. S1)
From the text: Supplement NIHMS2038790-supplement-table.xlsx, sheet "fig. S1" | column: Concentration (M)

MRGPRX4 (S83) = molecular target: T1, MRGPRX4 (S83) (Homo sapiens, UniProt Q96LA9, L83S); experiment: EC50 determination, intracellular calcium mobilization in MRGPRX4 stably expressed HEK293 cells (FLIPR Calcium 5, Flexstation-3); details: propofol series, individual replicate values
T1 construct: expressed in transfected cells
T1 sequence (Q96LA9 whole entry L83S): as the sequence (Q96LA9 whole entry L83S, the tested form may be a part) above
Summary of the method: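 EC50 came from a four-parameter logistic fit to averaged triplicate responses, each response being maximum post-stimulation signal less baseline. Intracellular calcium was monitored with Calcium 5 dye in HBSS with 20 mM HEPES, pH 7.4, after 1 h dye loading at 37 °C, using stably transfected HEK293 cells and parental controls.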

CC(C)c1cccc(C(C)C)c1O [Propofol]
PRESTO-Tango response (fig. S1), single replicate (MRGPRX4 WT (S83); concentration 9.77e-7 M): 0.1179 and 0.1434 and 0.1128 and 0.0576 and 0.1584 and 0.1581 and 0.09558 and 0.2113 and 0.06727 | PRESTO-Tango response (fig. S1), single replicate (MRGPRX4 WT (S83); concentration 1.95e-6 M): 0.1108 and 0.0929 and 0.1168 and 0.004899 and 0.1204 and 0.1953 and 0.1172 and 0.1059 and 0.09744 | PRESTO-Tango response (fig. S1), single replicate (MRGPRX4 WT (S83); concentration 3.91e-6 M): 0.09107 and 0.1491 and 0.1505 and 0.154 and 0.1534 and 0.08321 and 0.05164 and 0.03127 and 0.3077 | PRESTO-Tango response (fig. S1), single replicate (MRGPRX4 WT (S83); concentration 7.81e-6 M): 0.1035 and 0.1156 and 0.1105 and 0.05878 and 0.1844 and 0.08643 and 0.09982 and 0.0447 and 0.1851 | PRESTO-Tango response (fig. S1), single replicate (MRGPRX4 WT (S83); concentration 1.56e-5 M): 0.1135 and 0.116 and 0.1027 and 0.1824 and 0.02561 and 0.1241 and 0.06605 and 0.09721 and 0.1689 | PRESTO-Tango response (fig. S1), single replicate (MRGPRX4 WT (S83); concentration 3.13e-5 M): 0.1268 and 0.1068 and 0.1143 and 0.2727 and 0.04775 and 0.02749 and 0.1181 and 0.1469 and 0.08291 | PRESTO-Tango response (fig. S1), single replicate (MRGPRX4 WT (S83); concentration 6.25e-5 M): 0.1552 and 0.07997 and 0.0929 and 0.03397 and 0.1353 and 0.1588 and 0.2302 and 0.01074 and 0.08707 | PRESTO-Tango response (fig. S1), single replicate (MRGPRX4 WT (S83); concentration 0.00025 M): 0.109 and 0.07615 and 0.1012 and 0.1462 and 0.1013 and 0.03885 and 0.188 and 0.002674 and 0.09569 | PRESTO-Tango response (fig. S1), single replicate (MRGPRX4 WT (S83); concentration 0.0005 M): 0.06978 and 0.08316 and 0.1048 and 0.1033 and 0.11 and 0.04438 and 0.05461 and 0.1469 and 0.05616 | PRESTO-Tango response (fig. S1), single replicate (MRGPRX4 WT (S83); concentration 0.001 M): 0.07852 and 0.088 and 0.0856 and 0.07264 and 0.06166 and 0.1178 and 0.08358 and 0.132 and 0.03659 | PRESTO-Tango response (fig. S1), single replicate (HTLA cells; concentration 9.77e-7 M): 0.002641 and 0.003228 and 0.001921 and 0.003818 and 0.005628 and 0.002399 and 0.002922 and 0.00482 and 0.001506 | PRESTO-Tango response (fig. S1), single replicate (HTLA cells; concentration 1.95e-6 M): 0.01304 and 0.00742 and 0.001861 and 0.009318 and 0.007315 and 0.005392 and 0.006104 and 0.000476 and 0.005086 | PRESTO-Tango response (fig. S1), single replicate (HTLA cells; concentration 3.91e-6 M): 0.0059 and 0.008908 and 0.007295 and 0.003528 and 0.003903 and 0.003563 and 0.006271 and 0.01085 and 0.002976 | PRESTO-Tango response (fig. S1), single replicate (HTLA cells; concentration 7.81e-6 M): 0.01035 and 0.005294 and 0.00767 and 0.001374 and 0.003682 and 0.00304 and 0.005677 and 0.00324 and 0.000748 | PRESTO-Tango response (fig. S1), single replicate (HTLA cells; concentration 1.56e-5 M): 0.005663 and 0.003492 and 0.001779 and 0.006047 and 0.000809 and 0.001829 and 0.006081 and 0.002266 and 0.003388 | PRESTO-Tango response (fig. S1), single replicate (HTLA cells; concentration 3.13e-5 M): 0.005015 and 0.001994 and 0.006447 and 0.00774 and 0.01014 and 0.004442 and 0.006627 and 0.005281 and 0.005885 | PRESTO-Tango response (fig. S1), single replicate (HTLA cells; concentration 6.25e-5 M): 0.00323 and 0.00222 and 0.005079 and 0.001882 and 0.000357 and 0.003112 and 0.002446 and 0.001662 and 0.004291 | PRESTO-Tango response (fig. S1), single replicate (HTLA cells; concentration 0.00025 M): 0.00362 and 0.004413 and 0.002642 and 0.006045 and 0.000923 and 0.008313 and 0.004252 and 0.005811 and 0.003669 | PRESTO-Tango response (fig. S1), single replicate (HTLA cells; concentration 0.0005 M): 0.004877 and 0.00565 and 0.005098 and 0.004157 and 0.003595 and 0.001306 and 0.008836 and 0.005548 and 0.00448 | PRESTO-Tango response (fig. S1), single replicate (HTLA cells; concentration 0.001 M): 0.000524 and 0.002159 and 0.001733 and 0.007522 and 0.000243 and 0.003444 and 0.004679 and 0.004321 and 0.006568 | Fig. 1D dose-response, calcium response at Concentration (M) (MRGPRX4 (S83); 9.76563e-7 M): 0.414 and 3.255 and 2.599 and 1.616 and 1.795 and 1.237 and 1.276 and 3.496 and 2.341 | Fig. 1D dose-response, calcium response at Concentration (M) (MRGPRX4 (S83); 1.95313e-6 M): 1.458 and 0.513 and 0.300 and 1.914 and 1.276 and 2.203 and 3.251 and -1.964 and 1.519 | Fig. 1D dose-response, calcium response at Concentration (M) (MRGPRX4 (S83); 3.90625e-6 M): 5.819 and 7.751 and 4.466 and 7.090 and 4.830 and 4.639 and 13.006 and -1.259 and 2.816 | Fig. 1D dose-response, calcium response at Concentration (M) (MRGPRX4 (S83); 7.8125e-6 M): 1.962 and 0.130 and 1.580 and 1.041 and 3.162 and 0.591 and -0.388 and 5.581 and 3.691 | Fig. 1D dose-response, calcium response at Concentration (M) (MRGPRX4 (S83); 1.5625e-5 M): 1.132 and 9.188 and 9.688 and 3.963 and 8.123 and 8.863 and 0.133 and 12.778 and 11.454 | Fig. 1D dose-response, calcium response at Concentration (M) (MRGPRX4 (S83); 3.125e-5 M): 25.991 and 46.958 and 31.996 and 27.619 and 18.338 and 28.954 and 31.875 and 17.124 and 5.004 | Fig. 1D dose-response, calcium response at Concentration (M) (MRGPRX4 (S83); 6.25e-5 M): 7.246 and 18.605 and 32.559 and 31.367 and 1.645 and 36.351 and 11.712 and 17.508 and 39.720 | Fig. 1D dose-response, calcium response at Concentration (M) (MRGPRX4 (S83); 0.00025 M): 30.626 and 14.912 and 5.366 and 49.034 and 15.438 and 25.512 and 22.768 and 21.559 and 24.302 | Fig. 1D dose-response, calcium response at Concentration (M) (MRGPRX4 (S83); 0.0005 M): 10.617 and 40.711 and 21.943 and 10.261 and 44.385 and 12.114 and 18.721 and 45.754 and 25.261 | Fig. 1D dose-response, calcium response at Concentration (M) (MRGPRX4 (S83); 0.001 M): 34.500 and 40.615 and 40.058 and 10.462 and 33.199 and 24.127 and 20.241 and 39.351 and 8.604
